Experimental data as given in patent US20030203864A1, “Treatment of cancer” (priority 2002, published 2003).
Blank lines part the entries; values can stand above or below the compound they belong to. Strand notation (5' to 3'): a small letter for the sugar, then the base; units joined by * are phosphorothioate-linked, units joined directly phosphodiester-linked; [ ] holds rarer units or linkages, { } end groups; capitals alone tell only the bases. [invdT] = inverted (3'-3') thymidine; d = 2'-deoxy (DNA)

Key:
[1] = system: Egr-1; assay: Transient transfection CAT reporter assay (pEBS1^3foscat), Egr-1-dependent gene expression; format: cell-based, bovine; conditions: growth-arrested endothelial cells, 24 h; glucose 5 to 30 mM, insulin 100 nM, FGF-2 25 ng/ml
Experimental: Transient transfection analysis and, CAT assay. The endothelial cells were grown to 60-70% confluence in 100 mm. dishes and transiently transfected with 10 μg of the indicated chloramphenicol acetyl transferase (CAT)-based promoter reporter construct using FuGENE6 (Roche). The cells were rendered growth-quiescent by incubation 48 h in 0.25% FBS, and stimulated with various agonists for 24 h prior to harvest and assessment of CAT activity. CAT activity was measured and normalized to the concentration of protein in the lysates (determined by Biorad Protein Assay) as previously described (Khachigian, L. M. and Chesterman, C. N. (1999), Circ. Res., 84:1258-1267).

[2] = system: Egr-1 mRNA; assay: RT-PCR and Northern blot of Egr-1 mRNA in endothelial cells; format: cell-based, bovine; conditions: growth-quiescent endothelial cells, within 1 h of agonist
Experimental: Northern blot analysis. Total RNA (12 μg/well) of growth-arrested endothelial cells (prepared using TRIzol Reagent (Life Technologies) in accordance with the manufacturer's instructions) previously exposed to various agonists for 1 h was resolved by electrophoresis on denaturing 1% agarose-formialdehyde gels. Following transfer overnight to Hybond-N+ nylon membranes (Amersham), the blots were hybridized with ^32P-labeled Egr-1 cDNA prepared using the Nick Translation Kit overnight (Roche). The membranes were washed and radioactivity visualized by autoradiography as previously described (Khachigian et al., 1995).
RT-PCR. Reverse transcription was performed with 8 μg of total RNA using M-MLV reverse transcriptase. Egr-1 cDNA was amplified (334 bp product (Delbridge, G. J. and Khachigian, L. M. (1997), Circ. Res., 81:282-288)) using Taq polymerase by heating for 1 min at 94° C., and cycling through 94° C. for 1 min, 94° C. for 1 min, 55° C. for 1 min, and 72° C. for 1 min. Following thirty cycles, a 5 min extension at 72° C. was carried out. Samples were electrophoresed on 1.5% agarose gel containing ethidium bromide and photographed under ultraviolet illumination. β-actin amplification (690 bp product) was performed essentially as above. The sequences of the primers were: Egr-1 forward primer (5′-GCA CCC AAC AGT GGC AAC-3′) (SEQ ID NO:18), Egr-1 reverse primer (5′-GGG ATC ATG GGA ACC TGG-3′) (SEQ ID NO: 19), β-actin forward primer (5′-TGACGGGGTCACCCACACTGTGCCCATCTA 3′) (SEQ ID NO:20), and β-actin reverse primer (5′-CTAGAAGCATTTGCGGTGGACGATGGAGGG-3′) (SEQ ID NO:21).

[3] = system: Egr-1 protein; assay: Western blot of Egr-1 protein in endothelial cells; format: cell-based, bovine; conditions: for insulin-inducible Egr-1 protein synthesis: 0.8 μM oligonucleotide
Experimental: Antisense oligonucleotide delivery and Western blot analysis. Growth arrested cells in 100 mm dishes were incubated with the indicated oligonucleotides 24 h and 48 h after the initial change of medium. When oligonucleotide was added a second time, the cells were incubated with various concentrations of insulin and harvest 1 h subsequently. […] Lysates were resolved by electrophoresis on 8% denaturing SDS-polyacrylamide gels, transferred to PDVF nylon membranes (NEN-DuPont), blocked with skim milk powder, then incubated with polyclonal antibodies to Egr-1 (Santa Cruz Biotechnology, Inc) and monoclonal horseradish peroxidase-linked mouse anti-rabbit Ig secondary antibodies followed by chemiluminescent detection (NEN-DuPont).

[4] = system: bovine aortic endothelial cells; assay: 3H-thymidine incorporation into DNA, aortic endothelial cells; format: cell-based; conditions: for basal endothelial DNA synthesis: no added insulin, 0.25% serum; for insulin-inducible DNA synthesis: inhibitor added 2 h before insulin 500 nM, PD98059 10 and 30 μM, wortmannin 0.3 and 1 μM, SB202190 100 and 500 nM
Experimental: ^3H-Thymidine incorporation into DNA. Growth-arrested endothelial cells at 90% confluence in 96 well plates were incubated twice with the oligonucleotides prior to the addition of insulin. […] After 18 h of exposure to insulin, the cells were pulsed with 200,000 cpm/well of methyl-3H thymidine (NEN-DuPont) for 6 h.

[5] = system: bovine aortic endothelial cells; assay: In vitro injury (scrape) endothelial regrowth; format: cell-based; conditions: for endothelial regrowth stimulated by insulin after injury: 0.8 μM oligonucleotide
Experimental: In vitro injury. Growth-arrested cells at 90% confluence were incubated with antisense oligonucleotides and insulin at various concentrations as described above, then were scraped by drawing a sterile wooden toothpick across the monolayer (Khachigian et al., 1996). Following 48-72 h, the cells were fixed in 4% formalin, stained with hemotoxylin/eosin then photographed.

[6] = system: NGFI-A protein; assay: Western blot of NGFI-A protein in SMCs; format: cell-based, rat; conditions: 5% FBS 1 h
Experimental: (§1) Culture conditions and DNAzyme transfection. Primary rat aortic SMCs were obtained from Cell Applications, Inc., and grown in Waymouth's medium, pH 7.4, containing 10% fetal bovine serum (FBS), 50 μg/ml streptomycin and 50 IU/ml penicillin at 37° C. in a humidified atmosphere of 5% CO2 SMCs were used in experiments between passages 3-7. Pup rat SMCs (WKY12-22 (as described in Lernire et al, 1994, the entire contents of which are incorporated herein by reference)) were grown under similar conditions. Subconfluent (60-70%) SMCs were incubated in serum-free medium (SFM) for 6 h prior to DNAzyme (or antisense ODN, where indicated) transfection (0.1 μM) using Superfect in accordance with manufacturer's instructions (Qiagen). After 18 h, the cells were washed with phosphate-buffered saline (PBS), pH 7.4 prior to transfection a second time in 5% FBS.
Western blot analysis. Growth-quiescent SMCs in 100 mm plates (Nunc-InterMed) were transfected with ED5 or ED5SCR as above, and incubated with 5% FBS for 1 h. The cells were washed in cold PBS, pH 7.4, and extracted in 150 mM NaCl, 50 mM Tris-HCI, pH 7.5, […], 0.1% SDS, 1% Triton X-100, 5 mM EDTA, 1% trasylol, 10μ/ml leupeptin, 1% aprotinin and 2 mM PMSF. Twenty four μg protein samples were loaded onto 10% denaturing SDS-polyacrylamide gels and electroblotted onto PVDF nylon membranes (NEN-DuPont). […]

[7] = system: Primary rat aortic SMCs; assay: SMC proliferation assay (Coulter counter); format: cell-based
Experimental: as §1, with “Subconfluent (60-70%) SMCs were incubated in serum-free medium (SFM) for 6 h prior to DNAzyme (or antisense ODN, where indicated) transfection (0.1 μM) using Superfect in accordance with manufacturer's instructions (Qiagen).” left out
Assays of cell proliferation. Growth-quiescent SMCs in 96-well titer plates (Nunc-InterMed) were transfected with ED5 or ED5SCR as above, then exposed to 5% FBS at 37° C. for 72 h. The cells were rinsed with PBS, pH 7.4, trypsinized and the suspension was quantitated using an automated Coulter counter.

[8] = system: EGR-1; assay: Western blot of EGR-1 in HepG2 cells; format: cell-based, human
Chain of EGR-1 (P18146 whole entry): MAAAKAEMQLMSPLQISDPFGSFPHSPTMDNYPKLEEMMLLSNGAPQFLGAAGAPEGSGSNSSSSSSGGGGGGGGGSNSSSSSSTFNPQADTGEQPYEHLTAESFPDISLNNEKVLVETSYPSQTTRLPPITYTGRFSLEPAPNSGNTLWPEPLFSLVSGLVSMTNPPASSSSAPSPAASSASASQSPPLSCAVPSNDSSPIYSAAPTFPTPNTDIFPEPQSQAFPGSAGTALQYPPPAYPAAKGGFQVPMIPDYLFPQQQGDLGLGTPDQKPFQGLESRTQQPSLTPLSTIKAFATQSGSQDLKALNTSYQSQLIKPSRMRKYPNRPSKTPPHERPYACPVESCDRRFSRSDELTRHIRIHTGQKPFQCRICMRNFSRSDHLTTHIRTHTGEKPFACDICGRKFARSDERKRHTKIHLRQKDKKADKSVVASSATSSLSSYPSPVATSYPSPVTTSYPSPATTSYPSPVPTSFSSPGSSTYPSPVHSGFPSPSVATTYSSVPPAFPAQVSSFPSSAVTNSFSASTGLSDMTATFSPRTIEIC

Compound: insulin
Egr-1 binding activity (CAT reporter activity) [1]: did increase
Egr-1 mRNA levels [2]: elevated steady-state Egr-1 mRNA levels
Egr-1 protein synthesis ([3]; insulin 100 nM and 500 nM, within 1 h): induced Egr-1 protein synthesis
increase in DNA synthesis ([4]; insulin 100 nM): 100%
increase in DNA synthesis ([4]; insulin 500 nM): 200%
population of cells in the denuded zone after injury ([5]; insulin 500 nM at time of injury, 3 days): significantly increased

Compound: AS2C: size-matched phosphorothioate-linked counterpart of AS2 with similar base composition, 5′-GsCsAsCsTsTsCsTsGsCsTsGsTsCsC-3′ (DNA dG*dC*dA*dC*dT*dT*dC*dT*dG*dC*dT*dG*dT*dC*dC) [reference compound]
insulin-inducible Egr-1 protein synthesis [3]: lack of attenuation
basal endothelial DNA synthesis ([4]; 0.8 μM oligonucleotide): little effect
endothelial regrowth stimulated by insulin after injury [5]: not significantly different

Compound: EDC: DNAzyme with identical catalytic domain flanked by nonsense arms, 5′-CGCCATTAGGCTAGCTACAACGACCTAGTGAT-3′; 3′T inverted (DNA CGCCATTAGGCTAGCTACAACGACCTAGTGA; DNA, [invdT] at 3' end, backbone not given here)
serum-induction of NGFI-A protein [6]: neither ED5SCR nor EDC, a DNAzyme bearing an identical catalytic domain as ED5 and ED5SCR but flanked by nonsense arms had any influence

Egr-1 binding activity (CAT reporter activity) [1]: increased
Compound: fibroblast growth factor-2 [FGF-2]
Egr-1 mRNA levels [2]: elevated steady-state Egr-1 mRNA levels

Compound: COc1cccc(-c2cc(=O)c3ccccc3o2)c1N [PD98059, reference compound]
insulin-inducible DNA synthesis [4]: inhibited insulin-inducible DNA synthesis in a dose-dependent manner

Compound: AS2: Phosphorothioate-linked antisense oligonucleotide to translational start site of Egr-1 mRNA, 5′-CsTsTsGsGsCsCsGsCsTsGsCsCsAsT-3′ (DNA dC*dT*dT*dG*dG*dC*dC*dG*dC*dT*dG*dC*dC*dA*dT)
insulin-inducible Egr-1 protein synthesis [3]: inhibited
insulin-inducible 3H-thymidine incorporation ([4]; 0.4 μM oligonucleotide (vs 0.8 μM), insulin 500 nM): less effectively
DNA synthesis inducible by insulin ([4]; 0.8 μM oligonucleotide, insulin 500 nM and 1000 nM): significantly inhibited
basal endothelial DNA synthesis ([4]; 0.8 μM oligonucleotide): inhibited
endothelial regrowth stimulated by insulin after injury [5]: significantly inhibited
inhibition of SMC proliferation stimulated by serum ([7]; 0.1 μM, 5% FBS, 3 days): failed to inhibit proliferation
SMC growth ([7]; 1 μM): able to inhibit SMC growth

Compound: Oc1ccc(-c2nc(-c3ccncc3)c(-c3ccc(F)cc3)[nH]2)cc1 [SB202190, reference compound]
insulin-inducible DNA synthesis [4]: failed to affect DNA synthesis

Compound: SEQ ID NO:24: size matched DNAzyme with different sequence, 5′-tcagctgcaGGCTAGCTACAACGActcggcctt (DNA TCAGCTGCAGGCTAGCTACAACGACTCGGCCT; DNA, [invdT] at 3' end, backbone not given here) [reference compound]
EGR-1 expression in HepG2 cells [8]: no effect

Egr-1 binding activity (CAT reporter activity) [1]: did not increase
Compound: O=C[C@H](O)[C@@H](O)[C@H](O)[C@H](O)CO [glucose]

Compound: CCCCCCCCCCCCCC(=O)O[C@@H]1[C@@H](C)[C@@]2(O)[C@@H](C=C(CO)C[C@]3(O)C(=O)C(C)=C[C@@H]23)[C@@H]2C(C)(C)[C@]12OC(C)=O [PMA, Phorbol-12-myristrate 13-acetate, reference compound]
Egr-1 mRNA levels [2]: elevated steady-state Egr-1 mRNA levels
